Experimental data: patent US20100298325A1, “PYRIDINE DERIVATIVES FOR THE TREATMENT OF AMYLOID-RELATED DISEASES” (SENEXIS LIMITED, priority 2007, published 2010)
Where two headings read alike, the source gives them in different places.

How the values were obtained:
Aβ(1-42) = target: T1, Aβ(1-42) (Homo sapiens, UniProt P05067); assay: Thioflavin-T fluorimetric assay of Aβ(1-42) aggregation; format: biochemical; settings: 10 μM Aβ(1-42); thioflavin-T fluorescence; read-out: IC50 inhibiting 10 μM Aβ(1-42) aggregation
T1 construct: dissolving Aβ(1-42) HCl salt in hexafluoroisopropanol (HFIP)
T1 sequence (P05067 672-713 limits assumed): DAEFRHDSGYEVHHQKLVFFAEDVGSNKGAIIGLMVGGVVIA
Procedure: Aβ(1-42) was prepared for amyloid aggregation and toxicity assays by dissolving Aβ(1-42) HCl salt in hexafluoroisopropanol (HFIP), with brief sonication and vortexing. This solution of the Aβ(1-42) peptide in HFIP was stored at 4° C. @ 2 mM. When required, an aliquot of this stock solution was freeze-dried and dissolved in DMSO to 200 times the required final assay concentration (e.g. 2 mM for a final assay concentration of 10 μM). A 20 mM stock solution of each test compound was prepared in DMSO, and aliquots of these solutions were used to prepare further stock solutions of each test compound in DMSO, ranging in concentration from 3 μM up to 10 mM. These stock solutions were prepared for use as and when required and stored at −20° C. (maximum of 3 freeze-thaw cycles). The 20 mM parent stock solutions were stored frozen at −20° C. The daughter plate is sealed with silver seal and incubated at 37° C. for 24 and 48 hours for the Thioflavin T assay (LeVine and Scholten 1999). The activity of compounds in inhibiting 10 μM Aβ(1-42) aggregation was assessed by using a thioflavin-T fluorimetric assay. At each timepoint, a 50 or 100 μl aliquot is taken from each well of the daughter plate and dispensed into a black 96 well plate. Equal volume (50 or 100 μl) Thioflavin T [40 μM] (in Glycine buffer [50 mM]-NaOH pH 8.5) is added to each well. The plate was shaken and fluorescence was recorded using the top reader setting (10×1 msec), using excitation and emission filters of 440 (±15) and 485 (±10) nm, respectively. Fluorescence readings from equivalent experiments were averaged and % amyloid formation was determined as follows: Activity of Compounds in Inhibiting 10 μM Aβ(1-42) Aggregation Using Thioflavin-T Fluorimetric Assay

SH SY5Y cells = assay: Cell viability assay for amyloid toxicity using MTT reduction; format: cell-based; settings: 10 μM Aβ(1-42), 24 h incubation, MTT reduction as measure of cell viability, read-out: IC50 protecting SH SY5Y cells from a toxic insult of 10 μM Aβ(1-42)
Procedure: Aβ(1-42) was prepared for amyloid aggregation and toxicity assays by dissolving Aβ(1-42) HCl salt in hexafluoroisopropanol (HFIP), with brief sonication and vortexing. This solution of the Aβ(1-42) peptide in HFIP was stored at 4° C. @ 2 mM. When required, an aliquot of this stock solution was freeze-dried and dissolved in DMSO to 200 times the required final assay concentration (e.g. 2 mM for a final assay concentration of 10 μM).
A 20 mM stock solution of each test compound was prepared in DMSO, and aliquots of these solutions were used to prepare further stock solutions of each test compound in DMSO, ranging in concentration from 3 μM up to 10 mM. These stock solutions were prepared for use as and when required and stored at −20° C. (maximum of 3 freeze-thaw cycles). The 20 mM parent stock solutions were stored frozen at −20° C.
The activity of compounds in protecting SH SY5Y cells from a toxic insult of 10 μM Aβ(1-42) was assessed by using inhibition of MIT reduction as a measure of cell viability. An aliquot (3 μl) of test compound [various concentrations] in DMSO is added to 294 μl of Opti-Mem (containing 2% FBS, 1% Pen/Strep, 1% L-Gln) {daughter plate}. The well is mixed thoroughly. Then an aliquot (3 μl) of Aβ(1-42) [2 mM] is added to the daughter plate wells and again mixed thoroughly. 50 μl is then aspirated and dispensed into wells containing 50 μl media+SH SY5Ycells (cells are also plated in Opti-Mem, at ˜30,000 cells/well/50 μl). Final concentrations of compound on cells range from [50 μM] to [˜15 nM] with a final concentration of Aβ(1-42) of [10 μM].
Cell plates are incubated for 24 h and then the MTT assay (Shearman, 1999). is performed. Briefly, 15 μl of MTT (3-(4,5-dimethylthiazol-2-yl)-2,5-diphenyl-tetrazolium bromide) dye (from Promega) added to each well and the plates incubated in 5% CO2 at 37° C. for 4 hours. 100 μl Stop/solubilsation solution (from Promega) was added to each well and the plates were left overnight in humidified box at room temperature. The plate was shaken and the absorbance was recorded at both 570 nm and 650 nm. ΔA values were calculated by subtracting absorbance at 650 nm from absorbance at 570 nm, to reduce non-specific background absorbance. ΔA values from equivalent experiments were averaged and % cell viability was determined as follows:
Live cell controls: 1% DMSO in Opti-Mem
Dead cell controls: 0.1% Triton X-100 added to cells
Activity of Compounds in Protecting SH SY5Y Cells from a Toxic Insult of 10 μM Aβ(1-42) Using Inhibition of MTT Reduction as a Measure of Cell Viability

IC50 (Aβ(1-42)) [µM] | SMILES | IC50 (SH SY5Y cells; Homo sapiens, SH-SY5Y) [µM] | IC50 (SH SY5Y cells) [µM]
5 | Oc1cccc(Nc2ccc(Oc3ccc(F)cc3)cn2)c1 [Example 1, 3-[5-(4-Fluorophenoxy)pyridin-2-ylamino]-phenol] | 16 | –
9 | COc1cc(Nc2ccc(Oc3cccc(N(C)C)c3)cn2)ccc1F [Example 17, [5-(3-Dimethylaminophenoxy)-pyridin-2-yl]-(4-fluoro-3-methoxy-phenyl)amine] | 16 | –
– | COc1cc(N(C)c2ccc(Oc3cccc(N(C)C)c3)cn2)ccc1F [Example 26, [5-(3-Dimethylaminophenoxy)-pyridin-2-yl]-(4-fluoro-3-methoxy-phenyl)methylamine] | 22 | –
11 | COc1cc(Nc2ccc(Oc3cccc(N4CCOCC4)c3)cn2)ccc1F [Example 27] | 8 | –
15 | Oc1cccc(Nc2ccc(Oc3cccc(N4CCOCC4)c3)cn2)c1 [Example 31] | – | –
– | Oc1cccc(Nc2ccc(Nc3cccc(O)c3)nn2)c1 [RS-0406, reference compound] | – | 40
